Test results from patent US20190046662A1, “Compositions and Methods for Treating Neuropathic Pain” (Rutgers, The State University of New Jersey, priority 2016, published 2019).

Experiments:
Assay type in all cases: in vivo, rat
[1] = target: T1, hM4Di receptors expressed in TG (Homo sapiens, UniProt P08173, A203G/Y113C); assay: Orofacial formalin test after AAV5-hSyn-hM4Di-mCherry injection into TG (Example 1); details: rats with AAV5-hSyn-hM4Di-mCherry in TG, vs vehicle
T1 construct: expressed in transfected cells; host or cells: rat trigeminal ganglion neurons in vivo, transduced with AAV5 (synapsin promoter)
T1 sequence (P08173 1-479 Y113C/A203G): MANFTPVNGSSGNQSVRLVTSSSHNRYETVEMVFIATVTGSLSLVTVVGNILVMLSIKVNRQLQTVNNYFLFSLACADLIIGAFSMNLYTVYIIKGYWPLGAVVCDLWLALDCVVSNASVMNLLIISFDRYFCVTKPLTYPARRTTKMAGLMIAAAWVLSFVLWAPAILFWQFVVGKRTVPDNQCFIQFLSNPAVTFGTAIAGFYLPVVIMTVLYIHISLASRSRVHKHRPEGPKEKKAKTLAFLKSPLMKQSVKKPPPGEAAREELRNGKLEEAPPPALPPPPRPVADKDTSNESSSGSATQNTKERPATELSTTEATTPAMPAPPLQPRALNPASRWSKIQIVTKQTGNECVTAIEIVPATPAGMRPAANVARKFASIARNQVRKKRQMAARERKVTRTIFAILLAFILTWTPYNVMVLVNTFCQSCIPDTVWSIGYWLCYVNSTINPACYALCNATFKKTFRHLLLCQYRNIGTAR
Excerpt: The orofacial formalin model is well established for inducing behavioral and molecular changes indicating pain. The formalin model mimics the clinical situation of an acute insult that wanes rapidly. Models of trigeminal pain and their behavioral and molecular assessments have been described (Benoliel et al. (2001) Pain 91:111-21; Benoliel et al. (2001) Neurosci. Lett., 297:151-4; Benoliel et al. (2002) Pain 97:203-12; Benoliel et al. (2002) Pain 99:567-78). There is increased and intense directed facial grooming following injection of formalin into the rat vibrissal pad, and the duration of grooming is thought to represent the level of pain (Clavelou et al. (1995) Pain 62:295-301; Raboisson et al. (1995) J. Neurophysiol., 73:496-505; Sukriti et al. (2004) Methods Find Exp. Clin. Pharmacol., 26:253-6). At day 37 after virus injection (to allow for viral transfection and DREADD expression), acute pain was induced by subcutaneous injection of 50 μL of 1.5% formalin into the rat's vibrissal pad. Formalin activates Aδ and C nociceptors as well as trigeminal and spinal nociceptive neurons. Formalin-induced unilateral pain is biphasic, with an early short-lasting (3-5 minutes) phase, followed after a quiescent period by a second, prolonged (20-40 minutes) tonic phase. The orofacial formalin test is a valid and reliable way of producing and quantifying nociception in the trigeminal region of the rat (Raboisson et al. (2004) Neurosci. Biobehay. Rev., 28:219-26; Le Bars et al. (2001) Pharmacol. Rev., 53:597-652; Vos et al. (1998) Pain 76:173-8). The concentration of formalin used allows for the detection of both hypo- and hyperalgesic effects. The time that the animal spends rubbing the injected area with fore- or hind paws was recorded. Thirty minutes prior to injecting formalin the animals received CNO ([…], ip) or vehicle treatment.

hTac1-hM4D [2] = target: T2, hTac1-hM4D (Homo sapiens, UniProt P08173, A203G/Y113C); assay: Face grooming after s.c. formalin into right upper lip, Tac1-DREADD (hTac1-hM4D); details: females, n=7 per group, vs vehicle
T2 construct: expressed in transfected cells; host or cells: rat trigeminal ganglion neurons in vivo, viral vector with Tac1 promoter
T2 sequence (P08173 1-479 Y113C/A203G): T1 sequence (P08173 1-479 Y113C/A203G)
Experimental: The effects of Tac1-DREADD activation with CNO on face grooming activity observed after s.c. injection of formalin into the right upper lip were also studied (FIG. 9). The mean number of seconds that rats (females, n=7 per group) spent grooming (±SEM) is plotted for the 45 minutes post-formalin injection observation period. All animals had Tac1-DREADD (hTac1-hM4D) injected into the right trigeminal ganglion. CNO or vehicle was delivered i.p. 30 minutes prior to the s.c. injection of 1.5% formalin (50 μl) into the right upper lip (ipsilateral side), just lateral to the nose.

hSyn-hM4D = target: T3, hSyn-hM4D (Homo sapiens, UniProt P08173, A203G/Y113C); assay: von Frey detection threshold, synapsin-DREADD (hSyn-hM4D) in right trigeminal ganglion, non-CCI animals; details: n=7 per group, CNO i.p. vs vehicle
T3 construct: expressed in transfected cells; host or cells: rat trigeminal ganglion neurons in vivo, viral vector with synapsin promoter
T3 sequence (P08173 1-479 Y113C/A203G): T1 sequence (P08173 1-479 Y113C/A203G)
Excerpt: The effects of synapsin-DREADD activation with CNO on von Frey detection threshold were studied (FIG. 3). The von Frey assay uses von Frey fibers, which are small pieces of nylon rod of varying diameters, to test a rodent's sensitivity to a mechanical stimulus. The von Frey assay is generally considered a mechanical nociceptive threshold test. All animals (males, n=7 per group; females, n=7 per group) had synapsin-DREADD (hSyn-hM4D; synapsin promoter driven DREADD) injected into the right trigeminal ganglion. Average von Frey detection thresholds (±SEM) were plotted following intraperitoneal (i.p.) administration of CNO or vehicle.

hTac1-hM4D [3] = target: T2, hTac1-hM4D; assay: von Frey detection threshold, Tac1-DREADD (hTac1-hM4D) in right trigeminal ganglion, non-CCI animals; details: females, n=7 per group, CNO i.p. vs vehicle
Excerpt: The effects of Tac1-DREADD activation with CNO on von Frey detection threshold were also studied (FIG. 7). All animals (female, n=7 per group) had Tachykinin 1-DREADD (hTac1-hM4D; Tac1 promoter driven DREADD) injected into the right trigeminal ganglion. Average von Frey detection thresholds (±SEM) are plotted following intraperitoneal administration of CNO or vehicle.

[4] = CNO ip 30 min prior to formalin

C[N+]1([O-])CCN(C2=Nc3cc(Cl)ccc3Nc3ccccc32)CC1 [CNO, clozapine N-oxide]
trends to reduce: grooming in early phase (<9 minutes) after formalin [1, 4] | grooming in late phase (9-45 minutes) after formalin [1, 4]
no significant effect: total face grooming time, acute phase (0-6 minutes post formalin injection) (hTac1-hM4D [2]; CNO i.p. 30 min prior to 1.5% formalin (50 μl) s.c., F=0.07, P=0.8) | total face grooming time, tonic phase (12-45 minutes post formalin injection) (hTac1-hM4D [2]; CNO i.p. 30 min prior to formalin, F=1.6, P=0.2) | von Frey detection threshold, ipsilateral vibrissal pad (hSyn-hM4D; females, D28, 30 min after CNO, F=1.2, P=0.3) | von Frey detection threshold, contralateral vibrissal pad (hSyn-hM4D; females, F=2.8, P=0.1) | von Frey detection threshold, contralateral vibrissal pad (hSyn-hM4D; males, F=1.2, P=0.3) | von Frey detection threshold, ipsilateral vibrissal pad (hSyn-hM4D; males, F=3.3, P=0.1) | von Frey detection threshold, contralateral vibrissal pad (hTac1-hM4D [3]; F=0.4, P=0.6) | von Frey detection threshold, ipsilateral vibrissal pad (hTac1-hM4D [3]; F=1.4, P=0.3)
significantly reduced: total time spent grooming after formalin ([1]; CNO (10 mg/ml, ip) 30 min prior to 50 μL 1.5% formalin s.c. vibrissal pad, day 37 after virus, n=3/group, p<0.04)
